According to patent US8017125B2, “Copolymers for suppression of autoimmune diseases, and methods of use” (President and Fellows of Harvard College, priority 2001, dated 2011):
One block for each substance: values may come before it.

How the values were obtained:
HLA-DR-2 molecules = target: T1, HLA-DR-2 molecules (Homo sapiens, UniProt P01903+P01911); assay: Competitive binding of biotinylated MBP 86-100 to HLA-DR-2 molecules; conditions: biotinylated MBP 86-100 0.13 μM, 40 hr at 37° C.
T1 construct: Recombinant water-soluble HLA-DR-2 molecules were incubated with biotinylated MBP 86-100; Soluble HLA-DR-2 molecules were expressed in Drosophila S2 cells; made in house; host or cells: Drosophila S2 cells
Method: Protein expression and purification. Soluble HLA-DR-2 molecules were expressed in Drosophila S2 cells and purified as described (Kalandadze, A. et al. 1996. J. Biol. Chem. 271:20156-20162). Cells were grown at 26° C. in roller bottles in ExCell 401 medium (JRH Biosciences, Lenexa, Kans.) supplemented with 0-5% fetal bovine serum (Sigma Chemicals, St. Louis, Mo.). Cells were harvested 4-5 days after induction by 1 mM CuSO4. Supernatant from harvested cells was sequentially passed through Protein A, Protein G and Protein A-LB3.1 columns, followed by elution of the bound HLA-DR with 50 mM 3-[cyclohexylamino]-1-propanesulfonic acid (CAPS), pH 11.5, and neutralized with 200 mM phosphate (pH 6.0). Proteins were concentrated on a Centriprep 10 membrane (Amicon, Beverly, Mass.).
(A). Solutions. The solutions used in this assay are the following: binding buffer is 20 mM 2-[N-morpholino]ethanesulfonic acid (MES), 140 mM NaCl, 0.05% NaN3, pH 5.0, unless otherwise specified; PBS is 150 mM sodium chloride, 7.5 mM sodium phosphate, dibasic, 2.5 mM sodium phosphate, monobasic, pH 7.2; TBS is 137 mM sodium chloride, 25 mM Tris pH 8.0, 2.7 mM potassium chloride; TTBS is TBS plus 0.05% Tween-20. (B). […] Bound peptide-biotin was detected using streptavidin-conjugated alkaline phosphatase, as follows. […] Absorbance at 410 nm was monitored by a microplate reader (model MR4000; Dynatech, Chantilly, Va.).

[1] = system: 2E12 T cell clone (MBP 84-102-specific hybridoma from HLA-DR-2-transgenic mice); assay: Antigen presentation assay, 2E12 T cell clone; assay type: cell-based, mouse; conditions: L466 APC, MBP 85-99 4 μM (FIG. 1A)
Text: (§1) Antigen presentation assays.

[2] = system: Hy1B clone (MBP 84-102-specific TCR transfectant); assay: Antigen presentation assay, Hy1B T cell clone; assay type: cell-based; conditions: MGAR APC, MBP 85-99 12.5 μM (FIG. 1C)
Text: as §1

[3] = system: H-2s-restricted PLP 139-151-specific T cell hybridoma hPLP/1; assay: Antigen presentation assay, hPLP/1 hybridoma; assay type: cell-based, mouse; conditions: SJL/J splenocytes, PLP 139-151 24 μM, copolymer 28 μM (FIG. 2B)
Text: as §1

[4] = system: EAE induced by WSCH in SJL/J mice; assay: Suppression of EAE induced by WSCH; assay type: in vivo; conditions: for Incidence (mice with clinical signs of EAE / total immunized mice): SJL/J mice coinjected s.c. with 500 μg WSCH and 500 μg copolymer, observed 40 days
Method: (§2) Induction and suppression of EAE. […] Mice were scored daily for clinical signs of EAE on a scale 1-5, according to the severity of disease symptoms as previously described (Santambrogio, L. et al. 1993. J. Immunol. 151: 1116). For determination of suppression of EAE, each copolymer (500 μg/mouse) was mixed and injected with the encephalitogenic emulsion as described above.
To find out whether VEAK and FEAK random copolymers affected the clinical course of EAE in SJL/J mice, a number of in vivo experiments were performed. The protocol for disease induction was subcutaneous injection to co-immunize with both WSCH (500 μg) and each copolymer (500 μg), similar to the protocol of previous studies of suppression of EAE by Cop1 (Teitelbaum, D. et al. 1996. J. Neuroimmunol. 64:209-217). Following disease induction, mice were observed daily for 40 days for appearance of typical clinical signs of EAE (Table 1).

[5] = system: EAE induced by PLP 139-151 in SJL/J mice; assay: Suppression of EAE induced by PLP 139-151 peptide; assay type: in vivo; conditions: for Maximum mean score: clinical scale 1-5; for Incidence (mice with clinical signs of EAE / total immunized mice): Example 10: SJL/J mice co-injected with 50 μg PLP 139-151 and 500 μg copolymer, observed 70 days
Method: as §2
To find out whether random copolymers provided herein might affect development of chronic-relapsing EAE, mice were injected subcutaneously with 50 μg of PLP 139-151 (SEQ ID NO: 4; the encephalitogenic epitope in the SJL/J strain) alone, or with 50 μg of PLP 139-151 (SEQ ID NO: 4) and 500 μg of the copolymer. Mice were examined on a daily basis for 90 days after the induction of the disease.
In vivo experiments were carried out to determine whether the Y- and F-containing 50-mer random copolymers would affect the clinical course of EAE in SJL/J mice. As in Examples above, the protocol for co-immunization was subcutaneous injection of SJL/J mice with, in this example, the encephalitogenic epitope PLP 139-151 (SEQ ID NO: 4; 50 μg) and a copolymer preparation (500 μg). Following disease induction, mice were observed daily for appearance of typical signs of EAE, during a period of 70 days.

[6] = system: EAE induced by MBP 85-99 in humanized mice carrying HLA DR-2 and TCR transgenes; assay: Suppression of EAE induced by MBP 85-99 in humanized mice; assay type: in vivo; conditions: for Clinical score (severity of symptoms): 50 days
Text: Mouse strains. SJL/J (H-2^s) mice (8-12 weeks of age) were purchased from Jackson Laboratories (Bar Harbor, Me.) and were maintained in the animal facility at Harvard University according to the Guidelines of the Committee on Animals of Harvard University and the Committee on Care and Use of Laboratory Animal Resources, National Research Counsel (Department of Health and Human Services Publication 85-23, revised 1987).
Experimental animals were humanized mice carrying transgenes HLA DR-2 (DRA* 0101 and DRB1* 1501) and TCR from MS patient […], which is a V(D)J rearrangement of TCRα and TCRβ, amplified from clone Ob.1A12. Mice in each group were injected with MBP 85-99 (SEQ ID NO: 2) subcutaneously to induce EAE. […] Clinical symptoms were monitored over a course of 50 days on days indicated.

[7] = system: H-2s-restricted PLP 139-151-specific T cell hybridoma hPLP/c4; conditions: SJL/J splenocytes, PLP 139-151 24 μM, copolymer 28 μM (FIG. 2C)
MS patients = conditions: cited from earlier work
[8] = SJL/J mice, 500 μg WSCH + 500 μg copolymer
[9] = Example 10: 50 μg PLP 139-151 + 500 μg copolymer
[10] = Example 10: 50 μg PLP 139-151 + 500 μg copolymer, listed as Copaxone®

Inhibition of binding of biotinylated MBP 86-100 to HLA-DR-2 molecules (HLA-DR-2 molecules): inhibited most efficiently
Substance: ENPVVHFFKNIVTPR [MBP 85-99]

Substance: Glatiramer acetate [Copaxone ®]
Inhibition of binding of biotinylated MBP 86-100 to HLA-DR-2 molecules (HLA-DR-2 molecules): inhibited most efficiently | Inhibition of proliferation of the 2E12 T cell clone [1]: efficient | Inhibition of the Hy1B clone [2]: best inhibitor | Inhibition of proliferation of hPLP/1 hybridoma [3]: best inhibited | Incidence (mice with clinical signs of EAE / total immunized mice) [4]: 1/14 | Incidence (mice with clinical signs of EAE / total immunized mice) ([4]; listed as Copaxone®): One out of fourteen | Mean day of onset [4, 8]: 20.0 days | Percent disease [4, 8]: 7% | Percent mortality [4, 8]: 0% | Maximum mean score ([4]; SJL/J mice, 500 μg WSCH + 500 μg copolymer, clinical scale 1-5): 3.0 | Mean day of onset ([4]; SJL/J mice, 500 μg WSCH + 500 μg copolymer, listed as Copaxone®): 20 days | Effect on course of EAE induced by WSCH (in words) ([4]; co-immunization, 500 μg copolymer): suppressed EAE | Day of first attack ([5]; Example 6): 26 days | Day of peak of first attack ([5]; Example 6): 34 days | Mean maximal score ([5]; Example 6): 1.25 | Mortality ([5]; Example 6: 50 μg PLP 139-151 + 500 μg copolymer, 90 days): 12% | Mice with clinical signs of EAE out of group ([5]; Example 6: 50 μg PLP 139-151 + 500 μg copolymer, observed 90 days): two out of eight | Mean day of onset [5, 9]: 22.7 ± 7.1 days | Percent disease [5, 9]: 75% | Percent mortality [5, 9]: 6% | Maximum mean score [5, 9]: 2.6 ± 1.6 | Maximum mean score [5, 10]: 2.6 | Mean day of onset [5, 10]: 22 days | Incidence (mice with clinical signs of EAE / total immunized mice) [5]: 12/16 | Incidence (mice with clinical signs of EAE / total immunized mice) ([5]; listed as Copaxone®): 12 of 16 | Number of time points with symptoms ([6]; co-immunized): nine | Clinical score (severity of symptoms) ([6]; co-immunized on day 0 with 500 μg copolymer and 50 μg MBP 85-99): 2 to 3 | Number of time points with symptoms ([6]; pre-immunized): 14 time points | Stable level of symptoms (severity) ([6]; pre-immunized): greater than 1 | Clinical score (severity of symptoms) ([6]; pre-immunized two days prior to EAE induction): greater than 3 | Inhibition of hPLP/c4 hybridoma [7]: best inhibited | Reduction of frequency of relapse (MS patients): about 30% | Toxicity (MS patients; wide use): little or no toxicity
